Experimental data as given in the NIST ThermoML archive (doi:10.1021/acs.jced.9b00536).

Test: refractive index (Na D-line) (dimensionless); wn = mass fraction of the nth substance listed
Conditions: 100 kPa, Liquid, Standard Abbe refractometry

[Na+].[OH-] [sodium hydroxide] + O
refractive index
Conditions | 308.15 K | 313.15 K | 318.15 K | 323.15 K | 328.15 K | 333.15 K
w1 = 0.2 | – | 1.3801 | 1.3795 | 1.3788 | 1.3788 | 1.3794
w1 = 0.21 | – | 1.3825 | 1.3819 | 1.3815 | 1.381 | 1.3812
w1 = 0.22 | – | 1.3851 | 1.3847 | 1.3844 | 1.3836 | 1.3835
w1 = 0.23 | – | 1.3866 | 1.3858 | 1.3853 | 1.3852 | 1.3857
w1 = 0.24 | – | 1.3886 | 1.3877 | 1.3869 | 1.3862 | 1.3847
w1 = 0.25 | – | 1.3917 | 1.391 | 1.3904 | 1.39 | 1.3894
w1 = 0.26 | – | 1.3938 | 1.3931 | 1.3926 | 1.3922 | 1.3915
w1 = 0.27 | – | 1.3955 | 1.3946 | 1.3937 | 1.3929 | 1.3923
w1 = 0.28 | – | 1.3975 | 1.3968 | 1.3961 | 1.3953 | 1.3941
w1 = 0.29 | – | 1.3999 | 1.3989 | 1.3981 | 1.397 | 1.3964
w1 = 0.3 | – | 1.4011 | 1.4002 | 1.3994 | 1.3986 | 1.3977
w1 = 0.31 | – | 1.4033 | 1.4024 | 1.4016 | 1.4008 | 1.3998
w1 = 0.32 | – | 1.4044 | 1.4036 | 1.4025 | 1.4018 | 1.4008
w1 = 0.33 | – | 1.4061 | 1.4051 | 1.4042 | 1.4033 | 1.4024
w1 = 0.34 | – | 1.4086 | 1.4077 | 1.4068 | 1.4058 | 1.4048
w1 = 0.35 | 1.4114 | 1.4105 | 1.4095 | 1.4085 | 1.4076 | 1.4066
w1 = 0.36 | 1.413 | 1.4121 | 1.4111 | 1.4102 | 1.4093 | 1.4083
w1 = 0.37 | 1.4145 | 1.4136 | 1.4126 | 1.4117 | 1.4107 | 1.4098
w1 = 0.38 | 1.4163 | 1.4154 | 1.4145 | 1.4135 | 1.4126 | 1.4116
w1 = 0.39 | 1.418 | 1.417 | 1.416 | 1.4151 | 1.4142 | 1.4133
w1 = 0.4 | 1.4196 | 1.4186 | 1.4177 | 1.4167 | 1.4159 | 1.415
w1 = 0.41 | 1.4206 | 1.4196 | 1.4186 | 1.4177 | 1.4167 | 1.4159
w1 = 0.42 | 1.4221 | 1.4212 | 1.4202 | 1.4192 | 1.4183 | 1.4174
w1 = 0.43 | 1.4236 | 1.4226 | 1.4217 | 1.4207 | 1.4198 | 1.4189
w1 = 0.44 | 1.4245 | 1.4235 | 1.4226 | 1.4217 | 1.4208 | 1.4198
w1 = 0.45 | 1.4258 | 1.425 | 1.4239 | 1.423 | 1.4221 | 1.4212
w1 = 0.46 | 1.4275 | 1.4266 | 1.4256 | 1.4247 | 1.4238 | 1.4229
w1 = 0.47 | 1.4285 | 1.4275 | 1.4266 | 1.4257 | 1.4248 | 1.4239
w1 = 0.48 | 1.4301 | 1.4292 | 1.4282 | 1.4273 | 1.4264 | 1.4255
w1 = 0.49 | 1.4309 | 1.43 | 1.4289 | 1.428 | 1.4271 | 1.4263
w1 = 0.5 | 1.4319 | 1.4311 | 1.4302 | 1.4293 | 1.4284 | 1.4276
